Converted amounts (≈) assume the structure as drawn.
Tests used:
Format in all cases: cell-based
N. gonorrhoeae H041 = experiment: Liquid broth MIC in Fastidious broth; details: Neisseria gonorrhoeae, H041, read-out: Minimum Inhibitory Concentration, N. gonorrhoeae H041
Method in brief: (§1)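 Colonies were swabbed from chocolate agar after 24 h growth and standardised by optical density at 600 nm. Compounds were serially diluted twofold in Fastidious broth, and bacteria added to give 5×10^5 CFU/mL. After about 24 h at 36 °C in 5% CO2, the lowest concentration allowing under 10% growth was taken as MIC.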

N. gonorrhoeae WHO Q = experiment: Liquid broth MIC in Fastidious broth; details: Neisseria gonorrhoeae, read-out: Minimum Inhibitory Concentration, N. gonorrhoeae WHO Q
Method in brief: as §1

N. gonorrhoeae WHO G = experiment: Liquid broth MIC in Fastidious broth; details: Neisseria gonorrhoeae; N. gonorrhoeae strain WHO G; Fastidious broth; read-out: Minimum Inhibitory Concentration, N. gonorrhoeae WHO G
Method in brief: as §1

[1] = system: N. gonorrhoeae ATCC 49226; experiment: Liquid broth MIC in Fastidious broth; details: Neisseria gonorrhoeae, ATCC49226; N. gonorrhoeae strain ATCC 49226; Fastidious broth; read-out: Minimum Inhibitory Concentration, N. gonorrhoeae ATCC 49226
Method in brief: as §1

N. gonorrhoeae FA1090 = experiment: Liquid broth MIC in Fastidious broth; details: Neisseria gonorrhoeae; N. gonorrhoeae strain FA1090; Fastidious broth; read-out: Minimum Inhibitory Concentration, N. gonorrhoeae FA1090
Method in brief: as §1

N. gonorrhoeae WHO L = experiment: Liquid broth MIC in Fastidious broth; details: Neisseria gonorrhoeae; N. gonorrhoeae strain WHO L; Fastidious broth; read-out: Minimum Inhibitory Concentration, N. gonorrhoeae WHO L
Method in brief: as §1

N. gonorrhoeae WHO Z = experiment: Liquid broth MIC in Fastidious broth; details: Neisseria gonorrhoeae, read-out: Minimum Inhibitory Concentration, N. gonorrhoeae WHO Z
Method in brief: as §1

N. gonorrhoeae WHO K = experiment: Liquid broth MIC in Fastidious broth; details: Neisseria gonorrhoeae, read-out: Minimum Inhibitory Concentration, N. gonorrhoeae WHO K
Method in brief: as §1

[2] = system: K. pneumoniae SI-117 producing VIM-1; experiment: Broth microdilution MIC in CAMHB; details: Klebsiella pneumoniae, read-out: Minimum Inhibitory Concentration, K. pneumoniae SI-117
Method in brief: (§2)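 MIC, read by eye, is the lowest compound concentration giving no bacterial growth after 16-20 h at 37° C. Test compounds are serially diluted 2-fold in CAMHB and seeded with 2-8×10^5 CFU/mL of bacteria taken from a 3-5 h shaking culture, following CLSI methods.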

E. coli 901C = experiment: Broth microdilution MIC in CAMHB; details: Escherichia coli; E. coli 901C (hyper-permeable); MHB; read-out: Minimum Inhibitory Concentration, E. coli 901C
Method in brief: as §2

E. coli D22 = experiment: Broth microdilution MIC in CAMHB; details: Escherichia coli; E. coli D22 (hyper-permeable); MHB; read-out: Minimum Inhibitory Concentration, E. coli D22
Method in brief: as §2

A. baumannii ATCC 19606 = experiment: Broth microdilution MIC in CAMHB; details: Acinetobacter baumannii, ATCC19606; MHB; read-out: Minimum Inhibitory Concentration, A. baumannii ATCC 19606
Method in brief: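 Hyper-permeable or efflux-deficient strains serve to probe outer-membrane penetration. Growth inhibition is scored visually after 16-20 h at 37° C in CAMHB, starting from 2-8×10^5 CFU/mL.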

E. coli AG100 = experiment: Broth microdilution MIC in CAMHB; details: Escherichia coli; E. coli AG100 (wild-type parent); MHB; read-out: Minimum Inhibitory Concentration, E. coli AG100
Method in brief: as §2

Row | Compound | MIC (N. gonorrhoeae H041) [µg/mL] | MIC (N. gonorrhoeae WHO Q) [µg/mL] | MIC (N. gonorrhoeae WHO G) [µg/mL] | MIC [1] [µg/mL] | MIC (N. gonorrhoeae FA1090) [µg/mL] | MIC (N. gonorrhoeae WHO L) [µg/mL] | MIC (N. gonorrhoeae WHO Z) [µg/mL] | MIC (N. gonorrhoeae WHO K) [µg/mL] | MIC [2] [µg/mL] | MIC (E. coli 901C) [µg/mL] | MIC (E. coli D22) [µg/mL] | MIC (A. baumannii ATCC 19606) [µg/mL] | MIC (E. coli AG100) [µg/mL]
1 | CCN1CCN(C(=O)NC(C(=O)N[C@H]2Cc3cccc(C(=O)O)c3OB2O)c2cccc(C(=O)O)c2)C(=O)C1=O (stereo partly drawn) [Example 113, (3R)-3-(2-(3-carboxyphenyl)-2-(4-ethyl-2,3-dioxopiperazine-1-carboxamido)acetamido)-2-hydroxy-3,4-dihydro-2H-benzo[e][1,2]oxaborinine-8-carboxylic acid] | > 64 | 16 to 32 (≈ 29 to 57.9 µM) | 4 to 8 (≈ 7.24 to 14.5 µM) | 4 to 8 (≈ 7.24 to 14.5 µM) | 0.25 to 0.5 (≈ 0.453 to 0.905 µM) | > 64 | 16 to 32 (≈ 29 to 57.9 µM) | > 64 | > 128 | < 0.25 | 2 to 4 (≈ 3.62 to 7.24 µM) | > 128 | 32 to 64 (≈ 57.9 to 116 µM)
2 | NS(=O)(=O)Nc1cccc(C(NC(=O)N2CCN(CCF)C(=O)C2=O)C(=O)N[C@H]2Cc3cccc(C(=O)O)c3OB2O)c1 (stereo partly drawn) [Example 116, (3R)-3-(2-(4-(2-fluoroethyl)-2,3-dioxopiperazine-1-carboxamido)-2-(3-(sulfamoylamino)phenyl)acetamido)-2-hydroxy-3,4-dihydro-2H-benzo[e][1,2]oxaborinine-8-carboxylic acid] | > 64 | 16 to 32 (≈ 25.8 to 51.6 µM) | 4 to 8 (≈ 6.45 to 12.9 µM) | 16 to 32 (≈ 25.8 to 51.6 µM) | 0.25 to 0.5 (≈ 0.403 to 0.806 µM) | > 64 | 16 to 32 (≈ 25.8 to 51.6 µM) | 16 to 32 (≈ 25.8 to 51.6 µM) | 32 to 64 (≈ 51.6 to 103 µM) | < 0.25 | 0.5 to 1 (≈ 0.806 to 1.61 µM) | > 128 | 8 to 16 (≈ 12.9 to 25.8 µM)
3 | NCCCN1CCN(C(=O)N[C@@H](C(=O)N[C@H]2Cc3cccc(C(=O)O)c3OB2O)c2cccc(NS(N)(=O)=O)c2)C(=O)C1=O [Example 117, (R)-3-((R)-2-(4-(3-aminopropyl)-2,3-dioxopiperazine-1-carboxamido)-2-(3-(sulfamoylamino)phenyl)acetamido)-2-hydroxy-3,4-dihydro-2H-benzo[e][1,2]oxaborinine-8-carboxylic acid] | > 64 | > 64 | 16 to 32 (≈ 25.3 to 50.7 µM) | > 64 | 4 to 8 (≈ 6.33 to 12.7 µM) | > 64 | > 64 | > 64 | 32 to 64 (≈ 50.7 to 101 µM) | 2 to 4 (≈ 3.17 to 6.33 µM) | 2 to 4 (≈ 3.17 to 6.33 µM) | 32 to 64 (≈ 50.7 to 101 µM) | 32 to 64 (≈ 50.7 to 101 µM)
4 | NCCCN1CCN(C(=O)N[C@H](C(=O)N[C@H]2Cc3cccc(C(=O)O)c3OB2O)c2cccc(NS(N)(=O)=O)c2)C(=O)C1=O [Example 118, (R)-3-((S)-2-(4-(3-aminopropyl)-2,3-dioxopiperazine-1-carboxamido)-2-(3-(sulfamoylamino)phenyl)acetamido)-2-hydroxy-3,4-dihydro-2H-benzo[e][1,2]oxaborinine-8-carboxylic acid] | > 64 | > 64 | > 64 | > 64 | 4 to 8 (≈ 6.33 to 12.7 µM) | > 64 | > 64 | > 64 | > 128 | 2 to 4 (≈ 3.17 to 6.33 µM) | 8 to 16 (≈ 12.7 to 25.3 µM) | > 128 | 32 to 64 (≈ 50.7 to 101 µM)
5 | NC1(CN2CCN(C(=O)NC(C(=O)N[C@H]3Cc4cccc(C(=O)O)c4OB3O)c3cccc(NS(N)(=O)=O)c3)C(=O)C2=O)CC1 (stereo partly drawn) [Example 120, (3R)-3-(2-(4-((1-aminocyclopropyl)methyl)-2,3-dioxopiperazine-1-carboxamido)-2-(3-(sulfamoylamino)phenyl)acetamido)-2-hydroxy-3,4-dihydro-2H-benzo[e][1,2]oxaborinine-8-carboxylic acid] | > 64 | > 64 | > 64 | > 64 | 4 to 8 (≈ 6.22 to 12.4 µM) | > 64 | > 64 | > 64 | > 128 | 2 to 4 (≈ 3.11 to 6.22 µM) | 8 to 16 (≈ 12.4 to 24.9 µM) | > 128 | > 128

— patent publication US20230114728A1 (Venatorx Pharmaceuticals, Inc., priority 2019, published 2023)
